Reference: ChEMBL document CHEMBL1201861, “Genomics of Drug Sensitity in Cancer screening data, Wellcome Trust Sanger Institute”

Tests used:
Assay in all cases: cells
Type in all cases: functional, cell-based, Homo sapiens
[1] = test system: D-247MG; conditions: Homo sapiens, D-247MG
Description: SANGER: Inhibition of human D-247MG cell growth in a cell viability assay.

[2] = test system: DJM-1; conditions: Homo sapiens, DJM-1;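 note: growth inhibition of human DJM-1 cells, read out by a cell viability assay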
Description: SANGER: Inhibition of human DJM-1 cell growth in a cell viability assay.

[3] = test system: DMS-79; conditions: Homo sapiens, DMS-79;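 note: growth inhibition measured with a cell viability assay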
Description: SANGER: Inhibition of human DMS-79 cell growth in a cell viability assay.

[4] = test system: DU-4475; conditions: Homo sapiens, DU-4475
Description: SANGER: Inhibition of human DU-4475 cell growth in a cell viability assay.

[5] = test system: EW-1; conditions: Homo sapiens, EW-1;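 note: growth inhibition of the human EW-1 cell line, read out by a cell viability assay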
Description: SANGER: Inhibition of human EW-1 cell growth in a cell viability assay.

[6] = test system: EW-18; conditions: Homo sapiens, EW-18;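 note: growth inhibition of EW-18 cells, read out by a cell viability assay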
Description: SANGER: Inhibition of human EW-18 cell growth in a cell viability assay.

[7] = test system: GAK; conditions: Homo sapiens, GAK;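 note: cell growth inhibition read out by a cell viability assay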
Description: SANGER: Inhibition of human GAK cell growth in a cell viability assay.

[8] = test system: GB-1; conditions: Homo sapiens, GB-1;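 note: growth of GB-1 cells judged by a viability assay, IC50 marks the concentration inhibiting growth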
Description: SANGER: Inhibition of human GB-1 cell growth in a cell viability assay.

[9] = test system: HDLM-2; conditions: Homo sapiens, HDLM-2;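 note: cell viability assay measuring suppression of HDLM-2 proliferation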
Description: SANGER: Inhibition of human HDLM-2 cell growth in a cell viability assay.

[10] = test system: IST-MEL1; conditions: Homo sapiens, IST-MEL1;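 note: growth inhibition of the cell line, read out with a cell viability assay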
Description: SANGER: Inhibition of human IST-MEL1 cell growth in a cell viability assay.

[11] = test system: K562; conditions: Homo sapiens, K562
Description: SANGER: Inhibition of human K-562 cell growth in a cell viability assay.

[12] = test system: KALS-1; conditions: Homo sapiens, KALS-1;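 note: growth inhibition of KALS-1 cells, determined with a cell viability assay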
Description: SANGER: Inhibition of human KALS-1 cell growth in a cell viability assay.

[13] = test system: KINGS-1; conditions: Homo sapiens, KINGS-1;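 note: cell viability assay measuring suppression of KINGS-1 cell growth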
Description: SANGER: Inhibition of human KINGS-1 cell growth in a cell viability assay.

[14] = test system: L-363; conditions: Homo sapiens, L-363
Description: SANGER: Inhibition of human L-363 cell growth in a cell viability assay.

[15] = test system: LOX IMVI; conditions: Homo sapiens, LOX IMVI
Description: SANGER: Inhibition of human LOXIMVI cell growth in a cell viability assay.

[16] = test system: LS-123; conditions: Homo sapiens, LS-123
Description: SANGER: Inhibition of human LS-123 cell growth in a cell viability assay.

[17] = test system: MOLT-4; conditions: Homo sapiens, MOLT-4;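 note: growth inhibition of MOLT-4 cells, determined with a cell viability readout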
Description: SANGER: Inhibition of human MOLT-4 cell growth in a cell viability assay.

[18] = test system: MS-1; conditions: Homo sapiens, MS-1;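 note: growth inhibition of MS-1 cells, read out by cell viability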
Description: SANGER: Inhibition of human MS-1 cell growth in a cell viability assay.

[19] = test system: Mo; conditions: Homo sapiens, Mo
Description: SANGER: Inhibition of human Mo-T cell growth in a cell viability assay.

[20] = test system: NB10; conditions: Homo sapiens, NB10;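 note: growth inhibition of NB10 cells, read out by a cell viability assay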
Description: SANGER: Inhibition of human NB10 cell growth in a cell viability assay.

[21] = test system: NB17; conditions: Homo sapiens, NB17;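 note: growth inhibition of NB17 cells, read out with a cell viability assay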
Description: SANGER: Inhibition of human NB17 cell growth in a cell viability assay.

[22] = test system: NCI-H1304; conditions: Homo sapiens, NCI-H1304;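 note: growth inhibition of the cancer cell line, measured in a cell viability assay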
Description: SANGER: Inhibition of human NCI-H1304 cell growth in a cell viability assay.

[23] = test system: NCI-H1581; conditions: Homo sapiens, NCI-H1581;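 note: cell growth inhibition read out by a viability assay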
Description: SANGER: Inhibition of human NCI-H1581 cell growth in a cell viability assay.

[24] = test system: NCI-H1770; conditions: Homo sapiens, NCI-H1770;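 note: growth inhibition of NCI-H1770 cells determined with a viability readout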
Description: SANGER: Inhibition of human NCI-H1770 cell growth in a cell viability assay.

[25] = test system: NCI-H526; conditions: Homo sapiens, NCI-H526;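 note: growth inhibition of the human NCI-H526 cell line, measured by a cell viability assay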
Description: SANGER: Inhibition of human NCI-H526 cell growth in a cell viability assay.

[26] = test system: OCI-AML2; conditions: Homo sapiens, OCI-AML2;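 note: growth inhibition of OCI-AML2 cells, read out with a cell viability assay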
Description: SANGER: Inhibition of human OCI-AML2 cell growth in a cell viability assay.

[27] = test system: OCUB-M; conditions: Homo sapiens, OCUB-M;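 note: growth inhibition of the cancer cell line, read out through a cell viability assay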
Description: SANGER: Inhibition of human OCUB-M cell growth in a cell viability assay.

[28] = test system: OVCAR-4; conditions: Homo sapiens, OVCAR-4;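 note: growth inhibition of human OVCAR-4 cells, measured with a cell viability assay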
Description: SANGER: Inhibition of human OVCAR-4 cell growth in a cell viability assay.

[29] = test system: PSN1; conditions: Homo sapiens, PSN1;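 note: suppression of growth of human PSN1 cells, read out by a cell viability assay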
Description: SANGER: Inhibition of human PSN1 cell growth in a cell viability assay.

[30] = test system: RH-1; conditions: Homo sapiens, RH-1;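 note: growth inhibition of human RH-1 cells, read out with a cell viability assay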
Description: SANGER: Inhibition of human RH-1 cell growth in a cell viability assay.

[31] = test system: RPMI-8226; conditions: Homo sapiens, RPMI-8226
Description: SANGER: Inhibition of human RPMI-8226 cell growth in a cell viability assay.

[32] = test system: RPMI-8866; conditions: Homo sapiens, RPMI-8866
Description: SANGER: Inhibition of human RPMI-8866 cell growth in a cell viability assay.

[33] = test system: RXF 393; conditions: Homo sapiens, RXF 393;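 note: growth inhibition of human RXF 393 cells, read out with a cell viability assay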
Description: SANGER: Inhibition of human RXF393 cell growth in a cell viability assay.

[34] = test system: Ramos-2G6-4C10; conditions: Homo sapiens, Ramos-2G6-4C10;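 note: growth inhibition of the cell line, measured by a cell viability read-out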
Description: SANGER: Inhibition of human Ramos-2G6-4C10 cell growth in a cell viability assay.

[35] = test system: SCC-15; conditions: Homo sapiens, SCC-15;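 note: growth inhibition of SCC-15 cells, read out with a cell viability assay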
Description: SANGER: Inhibition of human SCC-15 cell growth in a cell viability assay.

[36] = test system: SCH; conditions: Homo sapiens, SCH;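 note: growth inhibition of human SCH cells, read out in a cell viability assay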
Description: SANGER: Inhibition of human SCH cell growth in a cell viability assay.

[37] = test system: SF-268; conditions: Homo sapiens, SF-268;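 note: growth inhibition of SF-268 cells determined with a cell viability assay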
Description: SANGER: Inhibition of human SF268 cell growth in a cell viability assay.

[38] = test system: SK-MEL-2; conditions: Homo sapiens, SK-MEL-2;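 note: growth inhibition of human SK-MEL-2 cells measured with a cell viability assay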
Description: SANGER: Inhibition of human SK-MEL-2 cell growth in a cell viability assay.

[39] = test system: SW 954; conditions: Homo sapiens, SW 954;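 note: growth inhibition of SW954 human cancer cells, read out as cell viability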
Description: SANGER: Inhibition of human SW954 cell growth in a cell viability assay.

[40] = test system: SW982; conditions: Homo sapiens, SW982;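 note: growth inhibition of SW982 cells, read out with a cell viability assay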
Description: SANGER: Inhibition of human SW982 cell growth in a cell viability assay.

[41] = test system: BV-173; conditions: Homo sapiens, BV-173
Description: SANGER: Inhibition of human BV-173 cell growth in a cell viability assay.

[42] = test system: TE-6; conditions: Homo sapiens, TE-6;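 note: growth inhibition of TE-6 cells, read out with a cell viability assay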
Description: SANGER: Inhibition of human TE-6 cell growth in a cell viability assay.

[43] = test system: TGBC24TKB; conditions: Homo sapiens, TGBC24TKB;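 note: growth inhibition of human TGBC24TKB cells, read out with a cell viability assay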
Description: SANGER: Inhibition of human TGBC24TKB cell growth in a cell viability assay.

[44] = test system: U-266; conditions: Homo sapiens, U-266
Description: SANGER: Inhibition of human U-266 cell growth in a cell viability assay.

[45] = test system: UACC-257; conditions: Homo sapiens, UACC-257
Description: SANGER: Inhibition of human UACC-257 cell growth in a cell viability assay.

[46] = test system: no-11; conditions: Homo sapiens;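 note: growth inhibition of human NO-11 cells, read out with a cell viability assay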
Description: SANGER: Inhibition of human no-11 cell growth in a cell viability assay.

[47] = test system: CGTH-W-1; conditions: Homo sapiens, CGTH-W-1;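 note: growth inhibition of human CGTH-W-1 cells measured by cell viability assay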
Description: SANGER: Inhibition of human CGTH-W-1 cell growth in a cell viability assay.

SMILES: CC(=O)O[C@H]1C(=O)[C@@]2(C)[C@H]([C@H](OC(=O)c3ccccc3)[C@]3(O)C[C@H](OC(=O)[C@H](O)[C@@H](NC(=O)c4ccccc4)c4ccccc4)C(C)=C1C3(C)C)[C@]1(OC(C)=O)CO[C@@H]1C[C@@H]2O [PACLITAXEL]
- IC50 [1]: > 102 nM
- IC50 [2]: 5.3 nM
- IC50 [3]: > 102 nM
- IC50 [4]: 42.4 nM
- IC50 [5]: 3.71 nM
- IC50 [6]: > 102 nM
- IC50 [7]: 102 nM
- IC50 [8]: 36 nM
- IC50 [9]: 43.9 nM
- IC50 [10]: 26.2 nM
- IC50 [11]: 15.2 nM
- IC50 [12]: 3.08 nM
- IC50 [13]: 23.6 nM
- IC50 [14]: 13.5 nM
- IC50 [15]: 70.3 nM
- IC50 [16]: 16.6 nM
- IC50 [17]: 1.49 nM
- IC50 [18]: > 102 nM
- IC50 [19]: > 102 nM
- IC50 [20]: > 102 nM
- IC50 [21]: 49.8 nM
- IC50 [22]: 52.1 nM
- IC50 [23]: 49.5 nM
- IC50 [24]: > 102 nM
- IC50 [25]: 28.9 nM
- IC50 [26]: 8.52 nM
- IC50 [27]: 6.62 nM
- IC50 [28]: 9.04 nM
- IC50 [29]: 1.3 nM
- IC50 [30]: 38.2 nM
- IC50 [31]: 11 nM
- IC50 [32]: 57.1 nM
- IC50 [33]: 12.6 nM
- IC50 [34]: > 102 nM
- IC50 [35]: > 102 nM
- IC50 [36]: > 102 nM
- IC50 [37]: 11.5 nM
- IC50 [38]: > 102 nM
- IC50 [39]: 1.19 nM
- IC50 [40]: 7.66 nM
- IC50 [41]: 25.5 nM
- IC50 [42]: 5.7 nM
- IC50 [43]: 7.52 nM
- IC50 [44]: > 0.102 µM
- IC50 [45]: 48.5 nM
- IC50 [46]: 34.8 nM
- IC50 [47]: 54.5 nM

SMILES: N[C@@H](CSC(c1ccccc1)(c1ccccc1)c1ccccc1)C(=O)O [S-TRITYL-L-CYSTEINE]
- IC50 [1]: > 5120 nM
- IC50 [2]: > 5120 nM
- IC50 [3]: > 5120 nM
- IC50 [4]: 1510 nM
- IC50 [5]: 1510 nM
- IC50 [6]: > 5120 nM
- IC50 [7]: > 5120 nM
- IC50 [8]: > 5120 nM
- IC50 [9]: 1500 nM
- IC50 [10]: > 5120 nM
- IC50 [11]: 1540 nM
- IC50 [12]: 1320 nM
- IC50 [13]: 2160 nM
- IC50 [14]: 1730 nM
- IC50 [15]: > 5120 nM
- IC50 [16]: > 5120 nM
- IC50 [17]: 4290 nM
- IC50 [18]: 2470 nM
- IC50 [19]: > 5120 nM
- IC50 [20]: > 5120 nM
- IC50 [21]: 3070 nM
- IC50 [22]: > 5120 nM
- IC50 [23]: 3600 nM
- IC50 [24]: > 5120 nM
- IC50 [25]: 4450 nM
- IC50 [26]: 4220 nM
- IC50 [27]: 817 nM
- IC50 [28]: 3800 nM
- IC50 [29]: 1490 nM
- IC50 [30]: > 5120 nM
- IC50 [31]: 1280 nM
- IC50 [32]: > 5120 nM
- IC50 [33]: > 5120 nM
- IC50 [34]: 1550 nM
- IC50 [35]: > 5120 nM
- IC50 [36]: 2500 nM
- IC50 [37]: 3150 nM
- IC50 [38]: > 5120 nM
- IC50 [39]: 1880 nM
- IC50 [40]: 1070 nM
- IC50 [41]: 990 nM
- IC50 [42]: 3900 nM
- IC50 [43]: 2220 nM
- IC50 [44]: 4.8 µM
- IC50 [45]: > 5120 nM
- IC50 [46]: 4930 nM
- IC50 [47]: > 5120 nM
